Laboratory results published in ChEMBL document CHEMBL1165965, “Synthesis and structure-activity relationships of 1,2,3,4-tetrahydropyrido[2,3-b]pyrazines as potent and selective inhibitors of the anaplastic lymphoma kinase” (Bioorg Med Chem, 2010).

Assays:
[1] = target: T1, Homeodomain-interacting protein kinase 4 (Homo sapiens) (UniProt Q8NE63); experiment: Inhibition of HIPK4 at 1 uM
T1 sequence (whole entry): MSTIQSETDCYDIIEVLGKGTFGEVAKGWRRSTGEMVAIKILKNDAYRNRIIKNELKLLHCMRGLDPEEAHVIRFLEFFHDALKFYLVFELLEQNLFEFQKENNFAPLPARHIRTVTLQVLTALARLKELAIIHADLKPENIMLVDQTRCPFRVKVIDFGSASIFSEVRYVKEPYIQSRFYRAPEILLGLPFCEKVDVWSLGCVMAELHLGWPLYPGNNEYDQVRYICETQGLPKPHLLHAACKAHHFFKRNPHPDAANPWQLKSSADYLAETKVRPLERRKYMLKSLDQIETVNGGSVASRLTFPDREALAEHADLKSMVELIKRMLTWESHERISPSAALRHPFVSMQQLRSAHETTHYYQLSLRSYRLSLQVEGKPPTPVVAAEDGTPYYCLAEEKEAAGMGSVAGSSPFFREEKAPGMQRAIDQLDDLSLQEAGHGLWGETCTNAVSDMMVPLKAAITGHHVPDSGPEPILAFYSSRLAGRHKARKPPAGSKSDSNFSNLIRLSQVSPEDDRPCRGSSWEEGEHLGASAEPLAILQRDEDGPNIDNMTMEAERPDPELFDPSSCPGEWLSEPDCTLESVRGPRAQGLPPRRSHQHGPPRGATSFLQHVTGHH

[2] = target: T2, Mitogen-activated protein kinase 12 (Homo sapiens) (UniProt P53778); experiment: Inhibition of p38-gamma at 1 uM
T2 sequence (whole entry): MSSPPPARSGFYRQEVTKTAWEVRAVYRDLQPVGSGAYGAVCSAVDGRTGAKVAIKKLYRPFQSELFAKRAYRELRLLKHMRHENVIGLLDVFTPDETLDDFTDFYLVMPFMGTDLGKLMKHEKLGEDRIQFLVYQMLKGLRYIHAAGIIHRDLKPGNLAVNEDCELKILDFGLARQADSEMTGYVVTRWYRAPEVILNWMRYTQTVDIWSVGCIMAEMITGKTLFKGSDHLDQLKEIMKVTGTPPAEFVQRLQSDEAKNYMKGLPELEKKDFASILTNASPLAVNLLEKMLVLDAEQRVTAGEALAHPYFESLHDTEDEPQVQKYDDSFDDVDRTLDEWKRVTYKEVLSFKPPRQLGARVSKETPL

[3] = target: T3, Serine/threonine-protein kinase LATS1 (Homo sapiens) (UniProt O95835); experiment: Inhibition of LATS1 at 1 uM
T3 sequence (whole entry): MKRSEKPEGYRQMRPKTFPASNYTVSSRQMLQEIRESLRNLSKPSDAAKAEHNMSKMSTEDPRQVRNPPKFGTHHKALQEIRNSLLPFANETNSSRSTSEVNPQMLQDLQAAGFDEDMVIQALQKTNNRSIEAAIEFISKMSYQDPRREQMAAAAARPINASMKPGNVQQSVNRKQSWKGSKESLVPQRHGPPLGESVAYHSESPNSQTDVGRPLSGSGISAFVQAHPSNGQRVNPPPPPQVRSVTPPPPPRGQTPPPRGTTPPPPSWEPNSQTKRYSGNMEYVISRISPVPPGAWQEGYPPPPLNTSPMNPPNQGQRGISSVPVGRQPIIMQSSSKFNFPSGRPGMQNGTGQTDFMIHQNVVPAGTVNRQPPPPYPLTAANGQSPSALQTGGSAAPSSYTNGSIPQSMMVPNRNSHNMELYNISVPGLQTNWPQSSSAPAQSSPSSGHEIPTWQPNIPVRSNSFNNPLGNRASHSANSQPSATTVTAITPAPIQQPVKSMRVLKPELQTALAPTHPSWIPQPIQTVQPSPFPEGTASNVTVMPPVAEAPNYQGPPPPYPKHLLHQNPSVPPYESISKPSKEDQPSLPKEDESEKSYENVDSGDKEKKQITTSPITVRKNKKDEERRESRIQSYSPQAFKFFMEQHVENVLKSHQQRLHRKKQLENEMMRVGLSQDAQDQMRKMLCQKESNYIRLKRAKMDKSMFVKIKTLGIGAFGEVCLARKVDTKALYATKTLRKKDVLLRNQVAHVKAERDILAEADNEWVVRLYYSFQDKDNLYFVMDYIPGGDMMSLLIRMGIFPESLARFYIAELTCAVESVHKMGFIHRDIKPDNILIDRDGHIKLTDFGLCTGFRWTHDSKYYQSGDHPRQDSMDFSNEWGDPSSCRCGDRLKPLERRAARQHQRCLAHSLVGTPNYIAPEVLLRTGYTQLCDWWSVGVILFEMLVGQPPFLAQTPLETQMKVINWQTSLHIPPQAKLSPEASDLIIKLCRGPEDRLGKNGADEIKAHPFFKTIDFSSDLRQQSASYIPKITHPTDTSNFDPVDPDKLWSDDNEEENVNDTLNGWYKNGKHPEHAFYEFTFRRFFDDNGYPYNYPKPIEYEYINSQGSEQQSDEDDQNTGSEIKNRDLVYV

[4] = target: T4, Hormonally up-regulated neu tumor-associated kinase (Homo sapiens) (UniProt P57058); experiment: Inhibition of HUNK at 1 uM
T4 sequence (whole entry): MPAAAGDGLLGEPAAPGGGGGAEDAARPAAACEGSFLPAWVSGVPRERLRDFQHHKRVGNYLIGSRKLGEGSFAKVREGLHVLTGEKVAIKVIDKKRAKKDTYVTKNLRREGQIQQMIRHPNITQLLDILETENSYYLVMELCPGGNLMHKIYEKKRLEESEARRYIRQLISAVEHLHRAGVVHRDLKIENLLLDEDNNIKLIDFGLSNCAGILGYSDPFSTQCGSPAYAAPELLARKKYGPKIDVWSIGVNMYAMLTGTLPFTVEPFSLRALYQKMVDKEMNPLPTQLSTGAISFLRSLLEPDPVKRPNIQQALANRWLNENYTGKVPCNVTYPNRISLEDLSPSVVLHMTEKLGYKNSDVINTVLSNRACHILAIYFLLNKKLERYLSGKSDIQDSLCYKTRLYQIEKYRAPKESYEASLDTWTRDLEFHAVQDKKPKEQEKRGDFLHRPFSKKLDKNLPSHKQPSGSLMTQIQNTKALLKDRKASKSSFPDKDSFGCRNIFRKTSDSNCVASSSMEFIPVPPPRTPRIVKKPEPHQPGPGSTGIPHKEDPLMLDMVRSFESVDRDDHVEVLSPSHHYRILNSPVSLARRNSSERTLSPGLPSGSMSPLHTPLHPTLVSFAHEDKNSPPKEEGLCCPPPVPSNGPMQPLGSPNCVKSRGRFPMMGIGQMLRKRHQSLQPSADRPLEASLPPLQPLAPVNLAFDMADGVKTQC

[5] = target: Proto-oncogene tyrosine-protein kinase Src (Homo sapiens) (UniProt P12931); experiment: Inhibition of SRC at 1 uM
Chain of Proto-oncogene tyrosine-protein kinase Src (Homo sapiens) (P12931 2-536 limits assumed): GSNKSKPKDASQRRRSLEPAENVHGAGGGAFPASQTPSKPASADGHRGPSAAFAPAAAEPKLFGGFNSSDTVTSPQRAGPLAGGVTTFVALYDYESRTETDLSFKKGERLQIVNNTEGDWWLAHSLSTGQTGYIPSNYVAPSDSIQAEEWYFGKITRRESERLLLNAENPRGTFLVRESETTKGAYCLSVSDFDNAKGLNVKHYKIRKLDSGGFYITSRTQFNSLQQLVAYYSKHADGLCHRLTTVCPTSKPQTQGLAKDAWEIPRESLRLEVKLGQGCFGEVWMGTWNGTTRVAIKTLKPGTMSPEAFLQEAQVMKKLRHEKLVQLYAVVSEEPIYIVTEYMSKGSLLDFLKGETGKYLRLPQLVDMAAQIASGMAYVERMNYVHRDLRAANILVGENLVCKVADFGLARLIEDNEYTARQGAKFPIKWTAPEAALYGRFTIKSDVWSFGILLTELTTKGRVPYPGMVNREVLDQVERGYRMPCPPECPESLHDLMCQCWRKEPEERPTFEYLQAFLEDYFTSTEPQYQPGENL

Measured: inhibition

CN1CCN(c2ccc(-c3cnc4c(c3)N(Cc3cc(Cl)ccc3Cl)CCN4)cn2)CC1
< 50%: all assays above

CN1CCN(c2ccc(-c3cnc4c(c3)N(Cc3cc(Cl)ccc3C(F)(F)F)CCN4)cn2)CC1
< 50%: all assays above

CN1CCN(c2ccc(-c3cnc4c(c3)N(Cc3c(F)ccc(F)c3Cl)CCN4)cn2)CC1
< 50%: all assays above

O=C(c1ccc(-c2cnc3c(c2)N(Cc2cc(Cl)ccc2C(F)(F)F)CCN3)cc1)N1CCC(N2CCCC2)CC1
< 50%: [2] | [5]

COC1CCN(C(=O)c2ccc(-c3cnc4c(c3)N(Cc3cc(Cl)ccc3C(F)(F)F)CCN4)cc2)CC1
< 50%: [2] | [5]

FC(F)(F)c1ccc(Cl)cc1CN1CCNc2ncc(-c3ccnc(N4CCNCC4)c3)cc21
< 50%: all assays above

CN1CCN(c2ccc(-c3cnc4c(c3)N(Cc3cc(F)ccc3F)CCN4)cn2)CC1
< 50%: all assays above

O=C(c1ccc(-c2cnc3c(c2)N(Cc2cc(Cl)ccc2C(F)(F)F)CCN3)cc1)N1CCCCC1
< 50%: [2] | [5]

CC(=O)N1CCN(c2cc(-c3cnc4c(c3)N(Cc3cc(Cl)ccc3C(F)(F)F)CCN4)ccn2)CC1
< 50%: all assays above

O=C(O)c1ccc(-c2cnc3c(c2)N(Cc2cc(Cl)ccc2C(F)(F)F)CCN3)cc1
< 50%: [2] | [5]
